Patent US20230295181A1, “INHIBITOR OF APOPTOSIS (IAP) PROTEIN ANTAGONISTS” (Sanford Burnham Prebys Medical Discovery Institute, priority 2020, published 2023)
pIC50: −log10 of the molar value. Counter-ions that a name gives are not always drawn.

Tests used:
Format in all cases: cell-based
[1] = test system: OVCAR-4; experiment: Cell viability (CellTiterGlo), OVCAR-4; conditions: Homo sapiens
Protocol: (§1) Candidate compounds are tested in 384-well plates for effects on cell viability in the presence or absence of an appropriate conventional anticancer drug. Cell viability is indirectly monitored in the first instance using CellTiterGlo (Promega Corp., Madison, WI) (Table D). To determine if cell death is apoptotic, the induction of caspase activity is assessed utilizing the CaspaseGlo Assay system (Promega Corp., Madison, WI) (Table E). Cell viability is monitored 1 to 3 days after addition of compounds and conventional drugs. […] A compound of any of the formulae as disclosed herein is evaluated in combination with said anticancer drug to determine which ML-IAP antagonist can sensitize most efficaciously. Select candidate compounds are tested in 14 point drug dose response (DDR) curves in a 384-well format in order to establish potency in combination with decreasing concentrations of lung cancer relevant drug regimens. Furthermore, checker-board titrations of a conventional drug and the candidate molecules are performed to search for synergy (using ISOBOLOGRAM analysis). Compounds and combinations as described herein are also tested for cytotoxicity against normal human cells (e.g. primary fibroblasts, lymphocytes, hepatocytes, epithelial and endothelial cells) using known methods.
(§2) Cell viability was evaluated following treatment with a compound as disclosed in Table D. Viability of cancer cells following treatment is indicated according to the following legend: […]

[2] = test system: SKOV-3; experiment: Cell viability (CellTiterGlo), SKOV-3; conditions: Homo sapiens, SK-OV-3
Protocol: as §1, §2

[3] = test system: SKOV-3 cancer cell lines; experiment: SKOV-3 cell viability after treatment with 10 μM test compound; conditions: for viability at 10 µM: Homo sapiens, SK-OV-3, 10 micromolar test compound, SKOV-3 cells; for % viability after treatment with 10 micromolar of test compound (SKOV-3 cells): 10 micromolar test compound
Protocol: SKOV-3 cancer cell lines were treated with a test compound, either as a pure enantiomer or a mixture of stereoisomers, at a concentration of 10 μM. Cell viability was evaluated following treatment with a compound as disclosed in Table B. Viability of cancer cells following treatment is indicated according to the following legend:
A=0-25% viability B=26-50% viability C=>50% viability

## CN[C@@H](C)C(=O)N[C@H]1CC(CSc2ccccc2)O[C@H]2CC(C)(C)C(C(=O)N[C@@H]3CCCc4ccccc43)N2C1=O (mixture of isomers) [Compound 75, rac-(4R)-8,8-dimethyl-4-((R)-2-(methylamino)propanamido)-5-oxo-2-((phenylthio)methyl)-N—((S)-1,2,3,4-tetrahydronaphthalen-1-yl)octahydropyrrolo[2,1-b][1,3]oxazepine-7-carboxamide hydrochloride]
[1]
  pIC50: 7.00 to 8.00
[2]
  pIC50: 7.00 to 8.00
[3]
  viability at 10 µM: 0 to 25%

## CN[C@@H](C)C(=O)N[C@H]1Cc2c([nH]c3ccccc23)[C@H]2CC(C)(C)C(C(=O)N[C@@H]3CCCc4ccccc43)N2C1=O (stereo in doubt) [Compound 2, (3R, 6S,12bR)-2,2-dimethyl-6-((S)-2-(methylamino)propanamido)-5-oxo-N—((R)-1,2,3,4-tetrahydronaphthalen-1-yl)-1,2,3,5,6,7,12,12b-octahydropyrrolo[1′,2′:1,2]azepino[3,4-b]indole-3-carboxamide hydrochloride]
[1]
  pIC50: < 6.00
[2]
  pIC50: < 6.00
[3]
  viability at 10 µM: 26 to 50%

## CN[C@@H](C)C(=O)N[C@H]1CCS(=O)(=O)[C@H]2CC(C)(C)[C@@H](C(=O)N[C@@H]3CCCc4ccccc43)N2C1=O [Compound 1, (4S,7S,9aS)-8,8-dimethyl-4-((S)-2-(methylamino)propanamido)-5-oxo-N—((R)-1,2,3,4-tetrahydronaphthalen-1-yl)octahydropyrrolo[2,1-b][1,3]thiazepine-7-carboxamide 1,1-dioxide hydrochloride]
[1]
  pIC50: < 6.00
[2]
  pIC50: < 6.00
[3]
  viability at 10 µM: > 50%

## CN[C@@H](C)C(=O)N[C@H]1Cc2cc(OC)ccc2[C@H]2CC(C)(C)[C@@H](C(=O)N[C@@H]3CCCc4ccccc43)N2C1=O [Compound 9, (6S,11bR)-9-methoxy-2,2-dimethyl-6-((S)-2-(methylamino)propanamido)-5-oxo-N—((R)-1,2,3,4-tetrahydronaphthalen-1-yl)-2,3,5,6,7,11b-hexahydro-1H-benzo[c]pyrrolo[1,2-a]azepine-3-carboxamide hydrochloride]
[1]
  pIC50: 6.00 to 7.00
[2]
  pIC50: 6.00 to 7.00
[3]
  viability at 10 µM: 0 to 25%

## CN[C@@H](C)C(=O)N[C@H]1Cc2ccc(OC)cc2[C@H]2CC(C)(C)[C@@H](C(=O)N[C@@H]3CCCc4ccccc43)N2C1=O [Compound 11, (6S,11bR)-10-methoxy-2,2-dimethyl-6-((S)-2-(methylamino)propanamido)-5-oxo-N—((R)-1,2,3,4-tetrahydronaphthalen-1-yl)-2,3,5,6,7,11b-hexahydro-1H-benzo[c]pyrrolo[1,2-a]azepine-3-carboxamide hydrochloride]
[1]
  pIC50: < 6.00
[2]
  pIC50: < 6.00
[3]
  viability at 10 µM: 26 to 50%

## C=CCC1(CC=C)C[C@@H]2OCC[C@H](NC(=O)[C@H](C)NC)C(=O)N2[C@@H]1C(=O)N[C@@H]1CCCc2ccccc21 [Compound 14, (4S,9aS)-8,8-diallyl-4-((S)-2-(methylamino)propanamido)-5-oxo-N—((R)-1,2,3,4-tetrahydronaphthalen-1-yl)octahydropyrrolo[2,1-b][1,3]oxazepine-7-carboxamide hydrochloride]
[1]
  pIC50: 6.00 to 7.00
[2]
  pIC50: 6.00 to 7.00
[3]
  viability at 10 µM: 0 to 25%

## CN[C@@H](C)C(=O)N[C@H]1CCO[C@H]2CC(C(C)C)(C(C)C)[C@@H](C(=O)NC(c3ccccc3)c3ccccc3)N2C1=O [Compound 61, (4S)—N-benzhydryl-8,8-diisopropyl-4-((S)-2-(methylamino)propanamido)-5-oxooctahydropyrrolo[2,1-b][1,3]oxazepine-7-carboxamide hydrochloride]
[3]; hydrochloride
  % viability after treatment with 10 micromolar of test compound (SKOV-3 cells): B (B=26-50% viability)

## CN[C@@H](C)C(=O)N[C@H]1CCO[C@H]2CC(CCc3ccccc3)(CCc3ccccc3)[C@@H](C(=O)NC(c3ccccc3)c3ccccc3)N2C1=O [Compound 62, (4S)—N-benzhydryl-4-((S)-2-(methylamino)propanamido)-5-oxo-8,8-diphenethyloctahydropyrrolo[2,1-b][1,3]oxazepine-7-carboxamide hydrochloride]
[3]
  viability at 10 µM: > 50%

## CN[C@@H](C)C(=O)N[C@@H]1C(=O)N2[C@H](CC(C)[C@H]2C(=O)N[C@@H]2CCCc3ccccc32)OC2CCCCC21 (stereo partly shown) [Compound 64, hydrochloride]
[3]
  viability at 10 µM: 0 to 25%

## CN[C@@H](C)C(=O)N[C@H]1CCO[C@H]2CC(C)(C)[C@@H](CN[C@@H]3CCSc4ccccc43)N2C1=O [Compound 67, (S)—N-((4S,7S,9aS)-8,8-dimethyl-5-oxo-7-((((R)-thiochroman-4-yl)amino)methyl)octahydropyrrolo[2,1-b][1,3]oxazepin-4-yl)-2-(methylamino)propanamide dihydrochloride]
[3]; dihydrochloride
  % viability after treatment with 10 micromolar of test compound (SKOV-3 cells): B (B=26-50% viability)

## CN[C@@H](C)C(=O)N[C@H]1CCO[C@H]2CC(C)(C)[C@@H](CN[C@@H]3CCSc4ccccc43)N2C1=O [Compound 68, (S)—N-((4S,7S,9aS)-8,8-dimethyl-5-oxo-7-((((R)-thiochroman-4-yl)amino)methyl)octahydropyrrolo[2,1-b][1,3]oxazepin-4-yl)-2-(methylamino)propanamide dihydrochloride]
[3]; dihydrochloride
  % viability after treatment with 10 micromolar of test compound (SKOV-3 cells): C (C=>50% viability)

## CN[C@@H](C)C(=O)N[C@H]1CCO[C@H]2CC(C)(C)C(c3nc4ccccc4o3)N2C1=O (stereo partly drawn) [Compound 72, (2S)—N-((4S,9aS)-7-(benzo[d]oxazol-2-yl)-8,8-dimethyl-5-oxooctahydropyrrolo[2,1-b][1,3]oxazepin-4-yl)-2-(methylamino)propanamide hydrochloride]
[3]
  viability at 10 µM: > 50%

## CN[C@@H](C)C(=O)N[C@H]1CCO[C@H]2CC(C)(C)[C@@H](CN[C@@H]3CCOc4ccccc43)N2C1=O [Compound 73, (S)—N-((4S,7S,9aS)-7-((((R)-chroman-4-yl)amino)methyl)-8,8-dimethyl-5-oxooctahydropyrrolo[2,1-b][1,3]oxazepin-4-yl)-2-(methylamino)propanamide dihydrochloride]
[3]
  viability at 10 µM: 26 to 50%

## CN[C@@H](C)C(=O)N[C@H]1CCS[C@H]2CC(C)(C)[C@@H](C(=O)N[C@H](CCC(=O)O)c3ccccc3)N2C1=O [Compound 77, (R)-4-((4S,7S,9aS)-8,8-dimethyl-4-((S)-2-(methylamino)propanamido)-5-oxooctahydropyrrolo[2,1-b][1,3]thiazepine-7-carboxamido)-4-phenylbutanoic acid hydrochloride]
[3]
  viability at 10 µM: 26 to 50%

## CN[C@@H](C)C(=O)N[C@H]1CCS[C@H]2CC(C)(C)[C@@H](C(=O)N[C@H]3c4ccccc4C[C@H]3OCCF)N2C1=O [Compound 78, (4S,7S,9aS)—N-((1S,2R)-2-(2-fluoroethoxy)-2,3-dihydro-1H-inden-1-yl)-8,8-dimethyl-4-((S)-2-(methylamino)propanamido)-5-oxooctahydropyrrolo[2,1-b][1,3]thiazepine-7-carboxamide hydrochloride]
[3]
  viability at 10 µM: 0 to 25%

## C#CCO[C@@H]1Cc2ccccc2[C@@H]1NC(=O)[C@H]1N2C(=O)[C@@H](NC(=O)[C@H](C)NC)CCS[C@H]2CC1(C)C [Compound 83, (2S)-1-{[(4S,7S,9aS)-8,8-Dimethyl-5-oxo-7-{[(1S,2R)-2-(prop-2-yn-1-yloxy)-2,3-dihydro-1H-inden-1-yl]carbamoyl}octahydropyrrolo[2,1-b][1,3]thiazepin-4-yl]amino}-N-methyl-1-oxopropan-2-ammonium chloride]
[3]
  viability at 10 µM: 0 to 25%
